Source: US20020010166A1, “CRYSTALLINE PROGESTAGENS” (priority 1997, published 2002)
Several values for one entry are separate records, joined by “and”; a condition that tells them apart may be missing. Equal entries are not always repeated.

Legend:
[1] = Differential Scanning Calorimetry (DSC) of crystalline forms of Org 30659; assay type: physicochemical; conditions: determined by DSC, heating rate 5.0° C./min, from the melting peak
Description: Differential Scanning Calorimetry (DSC)
DSC curves were recorded using a Seiko DSC-120 instrument. Closed aluminium pans having a volume of 5 μl were used in combination with a nitrogen flow of 50 ml/min. The heating rate was 5.0° C./min.
DSC curves of crystalline forms of Org 30659. The horizontal axis represents the temperature in ° C. (heating), the vertical axis represents heat in μW or mW.

[2] = Relative stability of crystalline forms on heating / in boiling water; assay type: physicochemical; conditions: at temperatures below 155° C., including subjection to boiling water

Row | Compound | thermodynamic stability, enthalpy ΔH [1] | relative stability of the crystalline form [2] | thermodynamic stability, enthalpy ΔH ([1]; listed as form C)
1 | C#C[C@]1(O)C=C[C@H]2[C@@H]3CCC4=CC(=O)CC[C@@H]4[C@H]3C(=C)C[C@@]21C [form (B), (17α)-17-hydroxy-11-methylene-19-norpregna-4,15-diene-20-yn-3-one] | 70 mJ/mg and 70.4 mJ/mg |  | 
2 | C#C[C@]1(O)C=C[C@H]2[C@@H]3CCC4=CC(=O)CC[C@@H]4[C@H]3C(=C)C[C@@]21C [form (A), (17α)-17-hydroxy-11-methylene-19-norpregna-4,15-diene-20-yn-3-one] | 84.3 mJ/mg and 84 mJ/mg | the most stable one | 
3 | C#C[C@]1(O)C=C[C@H]2[C@@H]3CCC4=CC(=O)CC[C@@H]4[C@H]3C(=C)C[C@@]21C [form (C), (17α)-17-hydroxy-11-methylene-19-norpregna-4,15-diene-20-yn-3-one] | 71.9 mJ/mg |  | 71.9 mJ/mg
